Reference: US11903917B2, “MEK-inhibitor for the treatment of viral and bacterial infections” (priority 2017, dated 2024)

How the values were obtained:
[1] = tested on: influenza virus strain A/Regensburg/D6/2009 (RB1, H1N1 pdm09); assay: Example 1: virus titer in the lung of infected mice, AVICEL plaque assay; assay type: in vivo, C57BL/6 mice
Experimental: 8 weeks old C57BL/6 mice (five per group) were infected with 1.5×10^5 PFU (5×MLD50) of the influenza virus strain A/Regensburg/D6/2009, (RB1, H1N1 pdm09). […] All animals received a volume of 200 μl per os. Mice were sacrificed 24 h post infection and lungs were weighed, transferred into a Lysing Matrix D tube (MP Bio) and BSS (buffered salt solution) in an amount of the 10-fold volume of the lung was applied to the samples. Organs were shredded using the FastPrep FP 120 (Savant). To remove the cell debris the homogenates were centrifuged for 15 min at 2000 rpm and the supernatant collected. The determination of virus titer in homogenates was performed using the AVICEL® plaque assay. Results are presented in FIG. 1 as virus titer (log 10) pfu/ml (left) or % virus titer (right). Virus titer was determined by two investigators independently. Mean values from all titrations were presented.

Bacillus subtilis = assay: Bacterial load of B. subtilis after 18 h (OD600, plating); assay type: cell-based
Experimental: Specifically, to test for a potential antibacterial effect on B. subtilis, over-night cultures of B. subtilis were incubated with either solvent or different concentrations of the MEK inhibitor PD-0184264 (as indicated) for 18 h. Afterwards, bacterial load was determined via measurement of the OD600 and plating of serial dilutions on BHI agar plates. Data shown in FIG. 11 represent means+SD of three independent experiments.

[2] = WST-Assay (cell viability); assay type: cell-based; details: human, A549 cells, FIG. 17C
Experimental: A549 cells were seeded in a 96-well flat-bottom tissue plate (Greiner, Germany) and were grown overnight. […] Thereafter, 10 μl WST-1 reagent (Roche, Germany) was added to the culture medium and incubated for four hours. During this time, the stable tetrazolium salt WST-1 was cleaved to a soluble formazan by metabolically active cells in the culture. After this incubation period, the formazan dye formed was quantitated with ELISA reader at 405 nm. The measured absorbance directly correlated to the number of viable cells.

H1N1 pdm09 = assay: Example 11: lung virus titration assay in infected mice; assay type: in vivo, C57BL/6 mice; details: for virus titer in the lung, control set to 100%: 24 h after infection
Experimental: (A) After H1N1 pdm09 infection female C57BL/6 mice were treated with either 2.8, 8.4 or 25 mg/kg PD-0184264 (left side) or with 25, 75 or 150 mg/Kg […] ([…]) the oral route. 24 hrs after infection the animals were killed and lung was taken to prepare a 10% suspension. Virus titer was determined using the standard method. Virus titer of mice treated with the two MEK-inhibitors were compared to virus titer of mice treated with solvent (Control) alone. Virus tier in the lungs of control mice was set to 100% (black bar). Graphpad Prism 7 software was used to illustrate both figures.
For oral application of 25 mg/kg, 2.5 mg of PD-0184264 were dissolved in 50 μl DMSO (Sigma-Aldrich, Germany) and further diluted with 0.15 ml Cremophor EL (Merck-Millipore, Germany) and 0.8 ml PBS (Gibco, Germany). For application of 8.4 mg/kg and 2.8 mg/kg, 0.84 mg or 0.28 mg PD-0184264 were dissolved with 50 μl DMSO (Sigma-Aldrich, Germany) and further diluted with 0.15 ml Cremophor EL/0.8 ml PBS.
Eight week old female C57Bl/6 mice (Charles River Laboratories, Germany) with a body weight of 21.0-24.0 g at administration were used for antiviral studies. The animals were normally fed. Drinking water was available ad libitum.
Drugs were administrated using a single dosing on test day 1 by oral gavage. The application speed was 15 s per dose with an administration volume of 200 μl.
Mice were sacrificed 24 h post infection and lungs were weighed, transferred into a Lysing Matrix D tube (MP Bio) and BSS was applied in an amount of the 10-fold volume of the lung. Organs were shredded using the FastPrep FP 120 (Savant). To remove the cell debris the homogenates were centrifuged for 15 min at 2000 rpm and the supernatant collected. The determination of virus titer in homogenates was performed using the AVICEL® plaque assay as described previously (Haasbach et al. 2011, Mastrosovich et al. 2006).

[3] = Pharmacokinetics, drug in plasma after i.v. or per os application; assay type: in vivo, NMRI mice
Experimental: Blood was collected at 15 min, 30 min, 1 h, 2 h, 4 h, 6 h, 8 h and 24 h (test day 2) after administration and plasma was analysed for the presence of the drug. […] Blood was collected at 15 min, 30 min, 1 h, 2 h, 4 h, 6 h, 8 h and 24 h (test day 2) after administration and plasma was analysed for the presence of the drug. Each data point represents the mean value of three plasma samples. Graphpad Prism 7 software was used to illustrate both figures.
34.88 mg PD-0184264 were dissolved in 0.075 ml DMSO and further diluted with 0.225 ml Cremophor EL/2.7 ml PBS. […] 81.0 mg PD-0184264 were dissolved in 0.2 ml DMSO/0.6 ml Cremophor EL/3.2 ml PBS.
Eight week old male NMRI mice (Charles River Laboratories, Germany) with a body weight of 23.9-36.5 g at administration were used for pharmacokinetic studies. The animals were normally fed. Drinking water was available ad libitum.
Experiments were performed at LPT GmbH (Hamburg, Germany). Sufficient whole blood—taken under isoflurane anaesthesia—was collected to obtain at least 2×100 μl Li-Heparin plasma of 3 animals per group and time-point at the following times: 0 (predose), 15 min, 30 min, 1 h, 2 h, 4 h, 6 h, 8 h and 24 h (test day 2) after administration. The whole blood samples were instantly cooled using an Iso-Therm-Rack system (Eppendorf AG, Germany) until centrifugation within 0.5 hours after withdrawal. Immediately after centrifugation, the samples were stored at −20° C. until further analysis. Plasma analysis was performed using standard procedures at Prolytic GmbH (Frankfurt, Germany).
Drugs were either administrated using a single dosing on test day 1 by oral gavage or by Intravenous bolus injection into a tail vein. The Injection speed was 15 s/dose with an administration volume of 200 μl.

## O=C(O)c1ccc(F)c(F)c1Nc1ccc(I)cc1Cl [PD-0184264, 2-(2-chloro-4-iodophenylamino)-N-3,4-difluoro benzoic acid]
[1]; 25 mg/kg per os, 8 h interval, 24 h post infection
  effect on virus titer in the lung (FIG. 1): same effect as 150 mg/kg CI-1040
[1]; 25 and 75 mg/kg
  efficacy in vivo by oral administration (Example 1): effective
Bacillus subtilis; 10 μM
  viable bacterial counts: strong decrease in viable bacterial counts
Bacillus subtilis; concentrations higher than 10 μM
  viable bacterial counts: complete abolishment
[2]
  CC50 at 24 h: > 1580 µM
H1N1 pdm09; 2.8 mg/kg oral
  virus titer in the lung, control set to 100%: approx. 70%
H1N1 pdm09; 8.4 mg/kg oral
  virus titer in the lung, control set to 100%: approx. 20%
H1N1 pdm09; 25 mg/kg oral
  virus titer in the lung, control set to 100%: approx. 10%
H1N1 pdm09; 25 mg/kg, FIG. 18
  reduction of the virus titer in the lung: at least 90%
H1N1 pdm09; oral
  fold lower concentration needed to achieve a similar effect as 150 mg/kg CI-1040: 6 fold
[3]; 150 mg/kg per os application
  drug in plasma at eight hours: still a high concentration
[3]; mouse, plasma, iv, male NMRI mice, route of this value not stated (75 mg/kg i.v. / 150 mg/kg per os)
  AUC: 1950 µg·h/mL
